Measured values: patent publication US8729047B2, “Compositions for inhibiting redox-sensitive GTPases” (Board of Regents, The University of Texas System, priority 2010, dated 2014)
Read-outs that look alike come from different tables or passages of the source. Values belong to the compound of their own block, whether it stands above or below them.

Legend:
HME-RhoC cells [1] = test: Apoptosis / cell population of cells treated with thiopurines; assay type: cell-based, human; details: for cells that underwent apoptosis within a day: thiopurine 1 μM
From the text: RhoC-overexpressed mammary epithelium (HME-RhoC) cells were used to examine the effect of 6-TG and/or a redox agent on RhoC.

HME-RhoC cells [2] = test: MTT cell viability and caspase-3/8 assays; assay type: cell-based, human
From the text: FIG. 25. […] (B) Caspase-3/8 assay: the apoptotic activity of sample cells treated with the apoptotic inducer was set to be 100%, and other results were then expressed as normalized values against the mean value associated with the treatment with the apoptotic inducer. For both (A) and (B), all values represent the mean values and standard error values from triplicate measurements.

T24 cells = test: Tumor cell apoptosis / viability (MTT); assay type: cell-based, human
From the text: (§1) Cell viability was examined employing 3-(4,5-dimethylthiazol-2-yl)-2,5-diphenyl tetrazolium bromide (MTT) (Cabello et al. Int. J. Oncol. 23, 697-704 (2003)).

HT1080 cells = test: Tumor cell apoptosis / viability (MTT); assay type: cell-based, human
From the text: as §1

Rac1 = Rac1 (Homo sapiens, UniProt P63000); test: Rac1 expression (Western) and Rac1 G-LISA activity in activated T cells; assay type: cell-based
Procedure: (§2) FIG. 26. Determination of Rac1 activity and ERM phosphorylation. […] (A) The soluble cell extract was then used to perform Western blot analyses for Rac1 and the ERM. This cell extract also was used for the co-IP-based ESI-MS analysis (FIG. 8). (B) A Rac1 activity assay was colorimetrically determined using cell extract; the assay was performed with the Rac1 G-LISA Activation Assay Kit (Cat. No. BK125) (Denver, Colo.). To examine the level of phosphorylation of the ERM, cells were cultured in complete RPMI 1640 medium with ˜50 μCi of ^32P/mL before initiating stimulation of T cells. The collected cell extract was nutated with resin coupled with a human ERM (231C2a) antibody (Santa Cruz Biotechnology, CA) at 4° C. for 5 h. […] The immunoprecipitates were then analyzed by SDS-PAGE and autoradiographed. […] The data represented in the figure represent the mean values of triplicate measurements, and the vertical error bar indicates standard errors.

ERM = ERM phosphorylation in activated T cells; assay type: cell-based
Procedure: as §2

RhoC = RhoC (Homo sapiens, UniProt P08134); test: Guanine nucleotide exchange of [3H]GDP-loaded GTPase with 6-TGDP (FIG. 13A); assay type: binding; set-up: made in house; host or cells: E. coli
Chain of RhoC (P08134 whole entry): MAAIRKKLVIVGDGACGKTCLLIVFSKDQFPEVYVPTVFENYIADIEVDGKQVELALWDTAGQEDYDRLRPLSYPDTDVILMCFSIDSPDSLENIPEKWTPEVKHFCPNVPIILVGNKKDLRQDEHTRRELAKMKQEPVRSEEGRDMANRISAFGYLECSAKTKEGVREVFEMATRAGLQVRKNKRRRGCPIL
Procedure: FIG. 13. Guanine nucleotide exchange of small GTPases with 6-TGDP. (A) To monitor 6-TGDP-mediated GTPase GDP dissociation, [^3H]GDP-loaded GTPase (1 μM) was incubated with 6-TGDP (0-2000 μM) for 1 h. (B) To monitor GTPase 6-TGDP dissociation by GDP (0-2000 μM) in the presence and absence of dithiothreitol (DTT), 6-TGDP-loaded GTPase (˜1 μM) was treated with .NO2 (˜3 μM) under anaerobic conditions and was incubated with various concentrations of [^3H]GDP (0-2000 μM) in the presence and absence of DTT (10 mM) for 1 h. For all assays, aliquots were withdrawn and spotted onto nitrocellulose filters. The filters were then washed three times with an assay buffer, and radioactivity was determined using a Beckman-Coulter scintillation counter. The resultant radioactivity (dpm) values associated with GTPase-bound [^3H]GDP were converted into the fraction of mol nucleotide per mol total GTPase. The data presented represent mean and standard error values from triplicate measurements. The apparent dissociation constants (appKD values) of GTPase 6-TGDP association ([^3H]GDP dissociation, A); and 6-TGDP dissociation ([3H]GDP association, B) were obtained by fitting the data to a simple dissociation and association, respectively. (A) The ^appKD values of Ras, RhoC, RhoA and Rac1 for 6-TGDP, are, respectively, 2300, 230, 224, and 245 μM [6-TGDP]. (B) The appKD values of RhoC with and without DTT are, respectively, 560, and 1000 μM [[^3H]GDP], whereas the ^appKD values of Ras with and without DTT are 530, and 520 μM [[^3H]GDP], respectively. The standard errors of each ^appKD value are less than 10% of their given values, and regression values associated with the fit were r^2>0.9560.
A kinetic assay method using radiolabeled GDP ([^3H]GDP) was established. The apparent dissociation constants (^appKD 6-TGDP) of Rho GTPases (including RhoA, Cdc42, and Rac1/2/3) and Ras with 6-TGDP were determined (FIG. 13). The results of this preliminary kinetic study provided strong support for the mechanism proposed for the role of 6-TGNP in RhoC inactivation (FIG. 7).
The true dissociation constant (^trueKD 6-TGDP) of Ras, RhoC, RhoA and Rac1 for 6-TGDP was then calculated to be ˜20.7 pM, 212 μM, 208 μM, and 158 μM [6-TGDP] by using a compensation equation, ^trueKD 6-TGDP=^appKD 6-TGDP/(1+[GDP]/^trueKD GDP) (95), in conjunction with the values given [(^appKD 6-TGDP of Ras, RhoC, RhoA, and Rac1=2300, 230, 224, and 245 μM (FIG. 13) and ^trueKD GDP=9 pM, 12 μM, 13 μM and 1.8 μM, respectively. The ^trueKD GDP of Ras, RhoA and Rac1 was determined previously (Lenzen et al. Biochemistry 37, 7420-7430 (1998); Heo et al. Biochemistry 44, 6573-6585 (2005)) and the ^trueKD GDP of RhoC was further determined. Example: ^trueKD 6-TGDP for Ras=2300 μM/(1+1 μM GDP/[…])=[…] [6-TGDP]].

[3] = 6-TG 1 μM every 48 h with DETA/NO or GSNO 10 μM, longer than ~10 days
[4] = 8-TG 1 μM with NO donor (DETA/NO or GSNO 10 μM), not shown

- cellular expression level of Rac1 and ERM (Rac1; presence or absence of 6-TG, FIG. 26A): not changed
SMILES: Nc1nc2nc[nH]c2c(=S)[nH]1 [6-TG, 6-thioguanine]
- cells persistently resisting additional treatments (of the initial cells) (HME-RhoC cells [1]; 6-TG 1 μM): 20%-25%
- cells that underwent apoptosis within a day (HME-RhoC cells [1]): ~80%
- apoptotic effect (caspase, FIG. 25B) (HME-RhoC cells [2]; 6-TG): minimal
- viability and caspase activity (HME-RhoC cells [2]; 6-TG and DETA/NO, FIG. 25): minimally affected
- cell viability (MTT, FIG. 25A) (HME-RhoC cells [2]; 6-TG for 3 days): minimally affected
- viability of 6-TG-resisting cells (T24 cells; [3]): decrease in the viability
- apoptosis within a day (T24 cells; 6-TG 1 μM, not shown): most cells underwent apoptosis
- initial cells that resisted additional treatment (T24 cells; 6-TG 1 μM, not shown): ~20%
- viability of 6-TG-resisting cells (HT1080 cells; [3]): decrease in the viability
- apoptosis within a day (HT1080 cells; 6-TG 1 μM, not shown): most cells underwent apoptosis
- initial cells that resisted additional treatment (HT1080 cells; 6-TG 1 μM, not shown): ~20%
- Rac1 inactivation (Rac1; 6-TG 1 μM, within 3 days, FIG. 26B): significant portion of Rac1 was inactivated
- fraction of inactive Rac1 (Rac1; 6-TG plus DETA/NO 10 μM): synergistically increases the fraction of inactive Rac1
- blockage of ERM dephosphorylation (ERM; 6-TG plus DETA/NO 10 μM): increases the blockage of the dephosphorylated form of ERM
- ERM phosphorylation (ERM; 6-TG, after three days, FIG. 26B): large portion of ERM in T cells was observed to have been phosphorylated

- Kd (RhoC; [3H]GDP-loaded GTPase 1 μM, 6-TGDP 0-2000 μM, 1 h, FIG. 13A, read-out: appKD for 6-TGDP): 230 µM
- Kd (RhoC; calculated by compensation equation from appKD 6-TGDP and trueKD GDP, read-out: trueKD 6-TGDP): 212 µM
SMILES: Nc1nc2c(ncn2[C@@H]2O[C@H](COP(=O)(O)OP(=O)(O)O)[C@@H](O)[C@H]2O)c(=S)[nH]1 [6-TGDP, 6-thioguanosine diphosphate]

- screen of 6-TP isomers on Rac1 activity (Rac1; not shown): most effectively inhibits Rac1 activity
SMILES: Nc1nc2[nH]c(S)nc2c(=O)[nH]1 [8-TG, 2-amino-8-mercapto-1H-purin-6(9H)-one]
- delayed minor apoptosis over the course of a week of treatment (HME-RhoC cells [1]; 8-TG 1 μM): ~5%
- cells that underwent apoptosis within a day (HME-RhoC cells [1]): less than 5%
- viability of cells treated with 8-TG-redox agent (HME-RhoC cells [2]; 8-TG for a week followed by NO donor): almost the same as that of the untreated HME-RhoC cells
- viability and anchorage-independent growth (T24 cells; [4]): did not affect
- viability and anchorage-independent growth (HT1080 cells; [4]): did not affect
- screen of 6-TP isomers on ERM dephosphorylation (ERM; not shown): blocks the dephosphorylation of ERM

SMILES: Nc1nc2c(ncn2[C@@H]2O[C@H](COP(=O)(O)OP(=O)(O)O)[C@@H](O)[C@H]2O)c(=O)[nH]1 [GDP]
- Kd (RhoC; further determined (Example 2), read-out: trueKD GDP): 12 µM
